Experimental findings from patent US12643912B2, “Macrocyclic compounds, a process for their preparation and pharmaceutical compositions containing them” (LES LABORATOIRES SERVIER, priority 2020, dated 2026) are described below.

One experiment concerns Nrf2 (Keap1-NRF2 nuclear translocation). Briefly: U2OS translocation assay (PathHunter U2OS Keap1-NRF2 Nuclear Translocation Cell Line). It counts as cell-based. Conditions: Homo sapiens, U2OS, 3 h, read-out: CELLULAR U2OS EC50 (nM), U2OS Keap1-NRF2 nuclear translocation cells, 3 h incubation, luminescence, normalized between 1% DMSO and 10 μM andrographolide. Here is the method: EXAMPLE 84: U2OS—TRANSLOCATION ASSAY
U2OS cell have been stably transduced using MMLV-derived retroviral vector, to overexpress Nrf2-Enzyme Donor fusion protein, and Acceptor Enzyme in the nucleus (PathHunter® U2OS Keap1-NRF2 Nuclear Translocation Cell Line, Ref.93-0821C3, DiscoverX).
PathHunter U2OS cells were grown in Minimum Essential Medium (MEM) (Ref.30-2003, ATCC), 10% FBS (Ref.P30-193306, PanBiotech), 500 μg/ml Geneticine, 250 μg/ml hygromycine, 0.25 μg/ml puromycine (10131-027, 10687-010 and Ref.A1113802 respectively, Life Technologies).
The night before experiment, cells were harvested using Tryple Xpress (Ref.126905, Bibco) for 5 min at 37° C., resuspended in Opti-MEM™ (Ref.31985-047, Gibco), 1% FBS (Ref.P30-193306, PanBiotech) and then plated into 384 wells plates (Ref.6007680, Perkin Elmer) at the density of 7 500 cells/well in 20 μl. Cell are stored over night at 37° C., 5% CO2 until used. Compounds in 100% DMSO (0.315 μl/well) were resuspended in 20 μl MEM, 1% FBS, 3.4% DMSO. Compounds and andrographolide (10 μM final concentration; Ref.365645-500MG, Aldrich)) as positive control, were dispensed on cell, 5 μl /well, and then incubated for 3 h at 37° C. and 5% CO2. After incubation, Path hunter reagents were dispensed on cells (12 μl /well, Ref.93-0001, DiscoverX) and incubated for 60 min at room temperature in the dark.
Then, luminescence signal was measured using multimodal reader (Pherastar, BMG Labtech). Data were normalized between 1% DMSO (basal signal) and 10 μM andrographolide (positive signal) and analyzed using Activity Base software.
What is called EC50 is the concentration that produces a half-maximal response. Consider `Cc1ccc2cc1CN1Cc3cc(ccc3OS1(=O)=O)CNC(=O)CCn1nnc3c(C)c(ccc31)C2CC(=O)O` (racemic) [Example 69, [4,31-Dimethyl-19,27,27-trioxo-26-oxa-27λ^6-thia-1,14,15,16,20-pentaazahexacyclo[20.5.3.1^3,70.1^9,130.0^12,160.0^25,29]dotriaconta-3(32),4,6,9(31),10,12,14,22,24,29-decaen-8-yl]acetic acid], for which the EC50 is > 3160 nM.

Regarding `Cc1ccc2cc1CN1Cc3cc(ccc3OS1(=O)=O)OCCCCn1nnc3c(C)c(cc(-c4ccccc4)c31)[C@@H]2CC(=O)O` (single isomer, unassigned) [Example 49], the EC50 amounted to 1620 nM.

The same experiment, now with this note: read-out: CELLULAR U2OS EC50; U2OS Keap1-NRF2 nuclear translocation cells, 3 h incubation, luminescence, normalized between 1% DMSO and 10 μM andrographolide.
As to `COc1cc2cc(c1C)CN1Cc3cc(ccc3OS1(=O)=O)OCCCCn1nnc3c(C)c(ccc31)C2CC(=O)O` (single isomer, unassigned) [Example 30a, [5-Methoxy-4,31-dimethyl-27,27-dioxo-21,26-dioxa-27λ^6-thia-1,14,15,16-tetraazahexacyclo[20.5.3.1^3,70.1^9,130.0^12,160.0^25,29]dotriaconta-3(32),4,6,9(31),10,12,14,22,24,29-decaen-8-yl]acetic acid], the EC50 is 555 nM.

In the case of `COc1cc2cc(c1C)CN1Cc3cc(ccc3OS1(=O)=O)OCCCCn1nnc3c(C)c(ccc31)C2CC(=O)O` (single isomer, unassigned) [Example 30b, [5-Methoxy-4,31-dimethyl-27,27-dioxo-21,26-dioxa-27λ^6-thia-1,14,15,16-tetraazahexacyclo[20.5.3.1^3,70.1^9,130.0^12,160.0^25,29]dotriaconta-3(32),4,6,9(31),10,12,14,22,24,29-decaen-8-yl]acetic acid], the concentration giving a half-maximal response (EC50) amounted to 2360 nM.

Regarding `Cc1ccc2cc1CN1Cc3cc(ccc3OS1(=O)=O)OCC1CCN(CC1)CCn1nnc3c(C)c(ccc31)C2CC(=O)O` (single isomer, unassigned) [Example 60a, [4,36-Dimethyl-30,30-dioxo-24,29-dioxa-30λ^6-thia-1,14,15,16,19-pentaazaheptacyclo[23.5.3.2^19,220.1^3,70.1^9,130.0^12,160.0^28,32]heptatriaconta-3(37),4,6,9(36),10,12,14,25,27,32-decaen-8-yl]acetic acid], the half-maximal effective concentration (EC50) was 265 nM.

On to `Cc1ccc2cc1CN1Cc3cc(ccc3OS1(=O)=O)OCC1CCN(CC1)CCn1nnc3c(C)c(ccc31)C2CC(=O)O` (single isomer, unassigned) [Example 60b, [4,36-Dimethyl-30,30-dioxo-24,29-dioxa-30λ^6-thia-1,14,15,16,19-pentaazaheptacyclo[23.5.3.2^19,220.1^3,70.1^9,130.0^12,160.0^28,32]heptatriaconta-3(37),4,6,9(36),10,12,14,25,27,32-decaen-8-yl]acetic acid], for which the EC50 is > 3160 nM.

Regarding `Cc1ccc2cc1CN1Cc3cc(ccc3OS1(=O)=O)OCc1ccccc1/C=C/n1nnc3c(C)c(ccc31)C2CC(=O)O` (single isomer, unassigned) [Example 61a, [(17E)-4,36-dimethyl-32,32-dioxo-26,31-dioxa-32λ^6-thia-1,14,15,16-tetraazaheptacyclo[25.5.3.1^3,70.1^9,130.0^12,160.0^19,240.0^30,34]heptatriaconta-3(37),4,6,9(36),10,12,14,17,19,21,23,27,29,34-tetradecaen-8-yl]acetic acid], the EC50 was 717 nM.

Take `Cc1ccc2cc1CN1Cc3cc(ccc3OS1(=O)=O)OCc1ccccc1/C=C/n1nnc3c(C)c(ccc31)C2CC(=O)O` (single isomer, unassigned) [Example 61b, [(17E)-4,36-dimethyl-32,32-dioxo-26,31-dioxa-32λ^6-thia-1,14,15,16-tetraazaheptacyclo[25.5.3.1^3,70.1^9,130.0^12,160.0^19,240.0^30,34]heptatriaconta-3(37),4,6,9(36),10,12,14,17,19,21,23,27,29,34-tetradecaen-8-yl]acetic acid]: the EC50 is > 3160 nM.

As for `Cc1ccc2cc1CN1Cc3cc(ccc3OS1(=O)=O)OCc1ccccc1SCCCn1nnc3c(C)c(ccc31)C2CC(=O)O` (single isomer, unassigned) [Example 67a, [4,38-Dimethyl-34,34-dioxo-28,33-dioxa-20,34λ^6-dithia-1,14,15,16-tetraazaheptacyclo[27.5.3.1^3,70.1^9,130.0^12,160.0^21,260.0^32,36]nonatriaconta-3(39),4,6,9(38),10,12,14,21,23,25,29,31,36-tridecaen-8-yl]acetic acid], the concentration for a half-maximal effect (EC50) was found to be 554 nM.

Turning to `Cc1ccc2cc1CN1Cc3cc(ccc3OS1(=O)=O)OCc1ccccc1SCCCn1nnc3c(C)c(ccc31)C2CC(=O)O` (single isomer, unassigned) [Example 67b, [4,38-Dimethyl-34,34-dioxo-28,33-dioxa-20,34λ^6-dithia-1,14,15,16-tetraazaheptacyclo[27.5.3.1^3,70.1^9,130.0^12,160.0^21,260.0^32,36]nonatriaconta-3(39),4,6,9(38),10,12,14,21,23,25,29,31,36-tridecaen-8-yl]acetic acid], the EC50 was > 3160 nM.

On to `Cc1ccc2cc1CN1Cc3cc(ccc3OS1(=O)=O)Oc1ccccc1NCCn1nnc3c(C)c(ccc31)C2CC(=O)O` (single isomer, unassigned) [Example 70a, [4,36-Dimethyl-32,32-dioxo-26,31-dioxa-32λ^6-thia-1,14,15,16,19-pentaazaheptacyclo[25.5.3.1^3,70.1^9,130.0^12,160.0^20,250.0^30,34]heptatriaconta-3(37),4,6,9(36),10,12,14,20,22,24,27,29,34-tridecaen-8-yl]acetic acid], for which the EC50 came out at 306 nM.

For the compound `Cc1ccc2cc1CN1Cc3cc(ccc3OS1(=O)=O)Oc1ccccc1NCCn1nnc3c(C)c(ccc31)C2CC(=O)O` (single isomer, unassigned) [Example 70b, [4,36-Dimethyl-32,32-dioxo-26,31-dioxa-32λ^6-thia-1,14,15,16,19-pentaazaheptacyclo[25.5.3.1^3,70.1^9,130.0^12,160.0^20,250.0^30,34]heptatriaconta-3(37),4,6,9(36),10,12,14,20,22,24,27,29,34-tridecaen-8-yl]acetic acid], the EC50 was > 3160 nM.

On to `Cc1ccc2cc1CN1Cc3cc(ccc3OS1(=O)=O)OCCCCn1nnc3c(C)c(ccc31)C2C(C)(C)C(=O)O` (single isomer, unassigned) [Example 74a, 2-[4,31-Dimethyl-27,27-dioxo-21,26-dioxa-27λ^6-thia-1,14,15,16-tetraazahexacyclo[20.5.3.1^3,70.1^9,130.0^12,160.0^25,29]dotriaconta-3(32),4,6,9(31),10,12,14,22,24,29-decaen-8-yl]-2-methylpropanoic acid], for which the EC50 turned out to be 6.11 nM.

Regarding `Cc1ccc2cc1CN1Cc3cc(ccc3OS1(=O)=O)OCCCCn1nnc3c(C)c(ccc31)C2C(C)(C)C(=O)O` (single isomer, unassigned) [Example 74b, 2-[4,31-Dimethyl-27,27-dioxo-21,26-dioxa-27λ^6-thia-1,14,15,16-tetraazahexacyclo[20.5.3.1^3,70.1^9,130.0^12,160.0^25,29]dotriaconta-3(32),4,6,9(31),10,12,14,22,24,29-decaen-8-yl]-2-methylpropanoic acid], the EC50 stood at 756 nM.
